From PubChem BioAssay AID248 (DTP/NCI, 2004)
Several values for one entry are separate records, joined by “and”; a condition that tells them apart may be missing. Equal values may be shown once. Toxic doses and inconclusive results are not listed. No stated cut-off is given here; in the data, active means T/C of 150% or more; inactive means T/C below 125%.

Test system: L1210 leukemia ip in BDF1 mice, survival T/C
Assay: NCI In Vivo Anticancer Drug Screen. Data for tumor model L1210 Leukemia (intraperitoneal) in B6D2F1 (BDF1) mice
Conditions: endpoint: mean survival time, higher = longer survival
How it was run: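 Mice bearing the transplanted tumor received compound or vehicle. Survival of the treated group was divided by that of the vehicle-treated control group to give the ratio.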

[1] = dose: 100.0 mg/kg/injection, schedule: Q04DX003 (ip), vehicle: saline with Tween-80
[2] = dose: 200.0 mg/kg/injection, schedule: Q04DX003 (ip), vehicle: saline with Tween-80
[3] = dose: 400.0 mg/kg/injection, schedule: Q04DX003 (ip), vehicle: saline with Tween-80
[4] = dose: 100.0 mg/kg/injection, schedule: Q01DX001 (ip), vehicle: saline
[5] = dose: 200.0 mg/kg/injection, schedule: Q01DX001 (ip), vehicle: saline
[6] = dose: 400.0 mg/kg/injection, schedule: Q01DX001 (ip), vehicle: saline
[7] = dose: 100.0 mg/kg/injection, schedule: Q01DX001 (ip), vehicle: carboxymethylcellulose (CMC)
[8] = dose: 200.0 mg/kg/injection, schedule: Q01DX001 (ip), vehicle: carboxymethylcellulose (CMC)
[9] = dose: 400.0 mg/kg/injection, schedule: Q01DX001 (ip), vehicle: carboxymethylcellulose (CMC)

Measured: T/C

Cc1c2c(ccc3ccccc32)c[n+]2ccccc12
inactive: dose: 1.1 mg/kg/injection, schedule: Q01DX009 (ip), vehicle: saline 97 % of control | dose: 1.1 mg/kg/injection, schedule: Q03HX024 (ip), vehicle: saline 98 % of control | dose: 1.7 mg/kg/injection, schedule: Q01DX009 (ip), vehicle: saline 105 % of control | dose: 1.7 mg/kg/injection, schedule: Q03HX024 (ip), vehicle: saline 100 % of control | dose: 1.8 mg/kg/injection, schedule: Q01DX Z (ip), vehicle: methylcellulose (MC) 116 % of control | dose: 2.0 mg/kg/injection, schedule: Q01DX009 (ip), vehicle: saline 96 % of control | dose: 2.5 mg/kg/injection, schedule: Q01DX Z (ip), vehicle: carboxymethylcellulose (CMC) 105 % of control | dose: 2.6 mg/kg/injection, schedule: Q01DX009 (ip), vehicle: saline 102 % of control | dose: 2.6 mg/kg/injection, schedule: Q03HX024 (ip), vehicle: saline 108 % of control | dose: 2.7 mg/kg/injection, schedule: Q01DX Z (ip), vehicle: methylcellulose (MC) 105 % of control | dose: 3.0 mg/kg/injection, schedule: Q01DX009 (ip), vehicle: saline 108 % of control | dose: 4.0 mg/kg/injection, schedule: Q01DX009 (ip), vehicle: saline 103 % of control | dose: 4.0 mg/kg/injection, schedule: Q01DX Z (ip), vehicle: methylcellulose (MC) 107 % of control | dose: 4.0 mg/kg/injection, schedule: Q03HX024 (ip), vehicle: saline 98 % of control | dose: 4.4 mg/kg/injection, schedule: Q01DX Z (ip), vehicle: methylcellulose (MC) 119 % of control | dose: 4.5 mg/kg/injection, schedule: Q01DX009 (ip), vehicle: saline 108 % of control | dose: 5.0 mg/kg/injection, schedule: Q01DX001 (ip), vehicle: carboxymethylcellulose (CMC) 100 % of control | dose: 5.0 mg/kg/injection, schedule: Q01DX Z (ip), vehicle: carboxymethylcellulose (CMC) 119 % of control | dose: 6.0 mg/kg/injection, schedule: Q01DX009 (ip), vehicle: saline 105 % of control and 107 % of control | dose: 6.0 mg/kg/injection, schedule: Q03HX024 (ip), vehicle: saline 104 % of control and 106 % of control | dose: 6.25 mg/kg/injection, schedule: Q04DX003 (ip), vehicle: saline 104 % of control | dose: 6.6 mg/kg/injection, schedule: Q01DX Z (ip), vehicle: methylcellulose (MC) 121 % of control | dose: 9.0 mg/kg/injection, schedule: Q01DX009 (ip), vehicle: saline 107 % of control | dose: 10.0 mg/kg/injection, schedule: Q01DX001 (ip), vehicle: carboxymethylcellulose (CMC) 107 % of control | dose: 11.0 mg/kg/injection, schedule: Q01DX001 (ip), vehicle: saline 109 % of control | dose: 11.0 mg/kg/injection, schedule: Q04DX003 (ip), vehicle: saline 107 % of control | dose: 12.5 mg/kg/injection, schedule: Q04DX003 (ip), vehicle: saline 108 % of control | dose: 13.0 mg/kg/injection, schedule: Q01DX009 (ip), vehicle: saline 111 % of control | dose: 15.0 mg/kg/injection, schedule: Q01DX Z (ip), vehicle: methylcellulose (MC) 97 % of control | dose: 17.0 mg/kg/injection, schedule: Q01DX001 (ip), vehicle: saline 110 % of control | dose: 17.0 mg/kg/injection, schedule: Q04DX003 (ip), vehicle: saline 105 % of control | dose: 20.0 mg/kg/injection, schedule: Q01DX001 (ip), vehicle: carboxymethylcellulose (CMC) 105 % of control | dose: 20.0 mg/kg/injection, schedule: Q01DX009 (ip), vehicle: saline 123 % of control | dose: 26.0 mg/kg/injection, schedule: Q01DX001 (ip), vehicle: saline 107 % of control | dose: 26.0 mg/kg/injection, schedule: Q04DX003 (ip), vehicle: saline 112 % of control

Cc1ccc(S(=O)(=O)Nc2c(C)c(Cl)c(C)c3ccccc23)cc1
inactive: [1] 94 % of control | [2] 87 % of control | [3] 89 % of control

CCCCCCP(=S)(CCCC)CCCCCC
inactive: dose: 100.0 mg/kg/injection, schedule: Q04DX002 (ip), vehicle: Klucel (hydroxypropylcellulose) (HPC) 102 % of control | dose: 200.0 mg/kg/injection, schedule: Q04DX002 (ip), vehicle: Klucel (hydroxypropylcellulose) (HPC) 102 % of control | dose: 400.0 mg/kg/injection, schedule: Q04DX002 (ip), vehicle: Klucel (hydroxypropylcellulose) (HPC) 102 % of control

COC(=O)C(Cc1c[nH]c2ccccc12)NC(=O)CNC(=O)OCc1ccccc1 (centres undefined)
inactive: dose: 100.0 mg/kg/injection, schedule: Q04DX003 (ip), vehicle: other 98 % of control | dose: 200.0 mg/kg/injection, schedule: Q04DX003 (ip), vehicle: other 102 % of control | dose: 400.0 mg/kg/injection, schedule: Q04DX003 (ip), vehicle: other 98 % of control

N#Cc1ccccc1N=NNc1ccccc1C#N
inactive: dose: 6.25 mg/kg/injection, schedule: Q01DX009 (ip), vehicle: Klucel (hydroxypropylcellulose) (HPC) 112 % of control | dose: 12.5 mg/kg/injection, schedule: Q01DX009 (ip), vehicle: Klucel (hydroxypropylcellulose) (HPC) 112 % of control | dose: 25.0 mg/kg/injection, schedule: Q01DX009 (ip), vehicle: Klucel (hydroxypropylcellulose) (HPC) 115 % of control | dose: 75.0 mg/kg/injection, schedule: Q01DX001 (ip), vehicle: other 96 % of control | dose: 150.0 mg/kg/injection, schedule: Q01DX001 (ip), vehicle: other 92 % of control

CC1(C)CC(=O)NN1C(=O)c1ccccc1
inactive: [1] 108 % of control | [2] 103 % of control | [3] 102 % of control

Cc1ccc(NC(=O)c2ccc(Cl)cc2Cl)cc1C
inactive: dose: 100.0 mg/kg/injection, schedule: Q01DX001 (ip), vehicle: Klucel (hydroxypropylcellulose) (HPC) 90 % of control | dose: 100.0 mg/kg/injection, schedule: Q01DX009 (ip), vehicle: saline with Tween-80 106 % of control | dose: 100.0 mg/kg/injection, schedule: Q04DX003 (ip), vehicle: Klucel (hydroxypropylcellulose) (HPC) 108 % of control | dose: 200.0 mg/kg/injection, schedule: Q01DX001 (ip), vehicle: Klucel (hydroxypropylcellulose) (HPC) 90 % of control | dose: 200.0 mg/kg/injection, schedule: Q01DX009 (ip), vehicle: saline with Tween-80 97 % of control | dose: 200.0 mg/kg/injection, schedule: Q04DX003 (ip), vehicle: Klucel (hydroxypropylcellulose) (HPC) 93 % of control | dose: 400.0 mg/kg/injection, schedule: Q01DX001 (ip), vehicle: Klucel (hydroxypropylcellulose) (HPC) 92 % of control | dose: 400.0 mg/kg/injection, schedule: Q01DX009 (ip), vehicle: saline with Tween-80 100 % of control | dose: 400.0 mg/kg/injection, schedule: Q04DX003 (ip), vehicle: Klucel (hydroxypropylcellulose) (HPC) 94 % of control

COc1ccccc1CN1CCCN(Cc2ccccc2OC)C1c1cccc(OC)c1O
inactive: dose: 50.0 mg/kg/injection, schedule: Q01DX001 (ip), vehicle: saline 95 % of control | [4] 101 % of control | [5] 93 % of control | [6] 93 % of control

CC(=O)Nc1cc2c(cc1[N+](=O)[O-])-c1ccc(F)cc1C2=O
inactive: [7] 100 % of control | [8] 96 % of control | [9] 99 % of control

COn1c(=O)c2ccccc2n(C)c1=O
inactive: dose: 62.5 mg/kg/injection, schedule: Q01DX009 (ip), vehicle: other 96 % of control | dose: 125.0 mg/kg/injection, schedule: Q01DX009 (ip), vehicle: other 94 % of control | dose: 250.0 mg/kg/injection, schedule: Q01DX009 (ip), vehicle: other 98 % of control

CCOC(=O)CCCC(=O)c1ccc(OC)c(OC)c1
inactive: [7] 100 % of control | [8] 102 % of control | [9] 100 % of control

Cn1c(=O)cc(CNc2ccc(-c3ccccc3)cc2)c2ccccc21
inactive: [4] 92 % of control | [5] 90 % of control | [6] 88 % of control

O=C1[O][Hg][c]2cccc3cccc1c23
inactive: dose: 5.0 mg/kg/injection, schedule: Q04DX003 (ip), vehicle: saline with Tween-80 101 % of control | dose: 10.0 mg/kg/injection, schedule: Q04DX003 (ip), vehicle: saline with Tween-80 95 % of control

NC(=S)N/N=C/c1ccc(C(F)(F)F)cn1
inactive: dose: 13.3 mg/kg/injection, schedule: Q04DX003 (ip), vehicle: saline with Tween-80 108 % of control | dose: 20.0 mg/kg/injection, schedule: Q04DX003 (ip), vehicle: saline with Tween-80 103 % of control | dose: 30.0 mg/kg/injection, schedule: Q04DX003 (ip), vehicle: saline with Tween-80 113 % of control | dose: 45.0 mg/kg/injection, schedule: Q04DX003 (ip), vehicle: saline with Tween-80 112 % of control | dose: 67.5 mg/kg/injection, schedule: Q04DX003 (ip), vehicle: saline with Tween-80 111 % of control
